From article PMC8228600, “Design, Synthesis, In Vitro and In Vivo Evaluation of Heterobivalent SiFAlin-Modified Peptidic Radioligands Targeting Both Integrin αvβ3 and the MC1 Receptor—Suitable for the Specific Visualization of Melanomas?” (Pharmaceuticals, 2021)
Read-outs that look alike come from different tables or passages of the source.

Test: Ex vivo biodistribution in tumor-bearing nude mice (non-tumor tissues)
Details: male, Balb/cAnNRj-Foxn1nu/nu (nude), mouse, iv, total radioactivity, ex vivo after PET/CT scan, i.v., n = 3
Procedure: For the evaluation of the in vivo pharmacokinetics, the two most promising HBPLs—[^18F]2 with the highest affinity to both target receptors and [^18F]4 with the highest hydrophilicity and still reasonable binding affinities—were selected. For PET/CT imaging, 6-week-old male nude mice (Balb/cAnNRj-Foxn1^nu/nu) were subcutaneously injected with 5 × 10^5 B16F10 cells into the right flank and 2.0–2.5 × 10^6 U87MG cells into the left flank to generate the respective receptor-positive tumors. When the tumors reached a sufficient size for imaging, each mouse was administered 4.15 ± 2.28 MBq of [^18F]2 or 3.95 ± 2.06 MBq of [^18F]4 via the lateral tail vein under isoflurane anesthesia. To determine the receptor specificity of both peptide parts of the labeled HBPLs and their relative contribution to overall tumor uptake, blocking experiments were also performed. […] After i.v. injection of the tracers, a dynamic PET scan, followed by a CT scan, was performed. The resulting PET/CT images and time–activity curves (TACs) are depicted in Figure 6, Figure 7 and Figure 8. After completion of the diagnostic scans, the mice were sacrificed, their organs (blood, spleen, liver, kidney, pancreas, lung, heart, brain, bone, muscle, tail, tumors, stomach, colon and small intestine) were collected and measured in a γ-counter for ex vivo biodistribution (see Supplementary Materials Table S1 for detailed results).
Each male nude mouse (six weeks old) was injected subcutaneously with 5 × 10^5 B16F10 cells into the right flank and 2.0–2.5 × 10^6 U87MG cells into the left flank. The health status and tumor growth of the mice were monitored regularly until the animals could be examined after 15–21 days, depending on the tumor size. For the in vivo experiments, the ^18F-radiolabeled compound was diluted in 0.9% saline to give a final EtOH concentration of <10%. Each mouse was injected with 4.15 ± 2.28 MBq of [^18F]2 or 3.95 ± 2.06 MBq of [^18F]4 via the lateral tail vein under isoflurane anesthesia. […] Each ^18F-labeled compound was studied with or without blocking in at least three mice. Mice were measured under isoflurane anesthesia in a small PET/SPECT/CT animal imaging system. First, a dynamic PET scan was performed over 90 min and the scan was framed in 29 timeframes (10 × 1 min, 10 × 2 min, 6 × 5 min, 3 × 10 min). Images were reconstructed using 12 iterations, a maximum likelihood expectation maximization (MLEM) algorithm including corrections for scattered radiation and decay and a voxel size of 0.5 mm. All PET scans were immediately followed by CT acquisition at a voltage of 45 kV and a current of 400 μA. The images were reconstructed using the filtered back projection (FBP) algorithm with a voxel size of 250 μm. The analysis of the data, including the generation of TACs of the kidneys, liver and tumors and the MIPs, was performed via PMOD (v3.8). For ex vivo biodistribution, the mice were sacrificed directly after the PET/CT scan. Organs (blood, spleen, liver, kidneys, pancreas, lungs, heart, brain, bone, muscle, tail, tumors, stomach, colon and small intestine) were collected, weighed and their radioactivity measured in a γ-counter. The percentage injected dose per gram (% ID/g) of each tissue was calculated from the determined values, organ weights, reference values and injected activity.

Question: Which tissue uptake at 1.5 h (blood, NDP blocking (20 μg coinjected), read-out: ID/g, blood) does the source give for `CCCC[C@H](NC(=O)CNC(=O)CNC(=O)CCOCCOCCOCCOCCOCCOCCOCCOCCOCCC(=O)NCCCN(CCCNC(=O)CCOCCOCCOCCOCCOCCOCCOCCOCCOCCC(=O)NCCCC[C@@H]1NC(=O)[C@@H](Cc2ccccc2)NC(=O)[C@H](CC(=O)O)NC(=O)CNC(=O)[C@H](CCCNC(=N)N)NC1=O)CC(=O)N[C@@H](CCCCNC(=O)CCC[N+](C)(C)Cc1ccc([Si](F)(C(C)(C)C)C(C)(C)C)cc1)C(N)=O)C(=O)N[C@H]1CC(=O)NCCCC[C@@H](C(N)=O)NC(=O)[C@H](Cc2c[nH]c3ccccc23)NC(=O)[C@H](CCCNC(=N)N)NC(=O)[C@@H](Cc2ccccc2)NC(=O)[C@H](Cc2c[nH]cn2)NC1=O` [[^18F]4] here?
Answer: 2.07 ± 0.94 %ID/g

Question: And the tissue uptake at 1.5 h (blood, c(RGDyK) blocking (200 μg coinjected), read-out: ID/g, blood)?
Answer: 0.83 ± 0.06 %ID/g

Question: What about the tissue uptake at 1.5 h (blood, double blocking (NDP + c(RGDyK)), read-out: ID/g, blood) of the same molecule?
Answer: 1 ± 0.15 %ID/g

Question: What about the tissue uptake at 1.5 h (blood, without blocking, read-out: ID/g, blood) of the same molecule?
Answer: 0.59 ± 0.08 %ID/g

Question: And the tissue uptake at 1.5 h (bone, NDP blocking (20 μg coinjected), read-out: ID/g, bone)?
Answer: 4.61 ± 0.71 %ID/g

Question: And the tissue uptake at 1.5 h (bone, c(RGDyK) blocking (200 μg coinjected), read-out: ID/g, bone)?
Answer: 4.99 ± 0.71 %ID/g

Question: What about the tissue uptake at 1.5 h (bone, double blocking (NDP + c(RGDyK)), read-out: ID/g, bone) of the same molecule?
Answer: 2.99 ± 0.78 %ID/g

Question: What about the tissue uptake at 1.5 h (bone, without blocking, read-out: ID/g, bone) of the same molecule?
Answer: 18.1 ± 6.02 %ID/g

Question: What about the tissue uptake at 1.5 h (brain, NDP blocking (20 μg coinjected), read-out: ID/g, brain) of the same molecule?
Answer: 0.19 ± 0.07 %ID/g

Question: What about the tissue uptake at 1.5 h (brain, c(RGDyK) blocking (200 μg coinjected), read-out: ID/g, brain) of the same molecule?
Answer: 0.07 ± 0.02 %ID/g

Question: And the tissue uptake at 1.5 h (brain, double blocking (NDP + c(RGDyK)), read-out: ID/g, brain)?
Answer: 0.07 ± 0.01 %ID/g

Question: What about the tissue uptake at 1.5 h (brain, without blocking, read-out: ID/g, brain) of the same molecule?
Answer: 0.1 ± 0.03 %ID/g

Question: And the tissue uptake (colon, NDP blocking (20 μg coinjected), read-out: ID/g, colon)?
Answer: 0.96 ± 0.13 %ID/g

Question: What about the tissue uptake (colon, c(RGDyK) blocking (200 μg coinjected), read-out: ID/g, colon) of the same molecule?
Answer: 0.8 ± 0.32 %ID/g

Question: What about the tissue uptake (colon, double blocking (NDP + c(RGDyK)), read-out: ID/g, colon) of the same molecule?
Answer: 0.42 ± 0.05 %ID/g

Question: And the tissue uptake (colon, without blocking, read-out: ID/g, colon)?
Answer: 0.77 ± 0.26 %ID/g

Question: What about the tissue uptake at 1.5 h (heart, NDP blocking (20 μg coinjected), read-out: ID/g, heart) of the same molecule?
Answer: 0.73 ± 0.06 %ID/g

Question: What about the tissue uptake at 1.5 h (heart, c(RGDyK) blocking (200 μg coinjected), read-out: ID/g, heart) of the same molecule?
Answer: 1.51 ± 0.57 %ID/g

Question: What about the tissue uptake at 1.5 h (heart, double blocking (NDP + c(RGDyK)), read-out: ID/g, heart) of the same molecule?
Answer: 0.52 ± 0.06 %ID/g

Question: What about the tissue uptake at 1.5 h (heart, without blocking, read-out: ID/g, heart) of the same molecule?
Answer: 0.56 ± 0.19 %ID/g

Question: And the tissue uptake at 1.5 h (kidneys, NDP blocking (20 μg coinjected), read-out: ID/g, kidneys)?
Answer: 23.1 ± 4.97 %ID/g

Question: And the tissue uptake at 1.5 h (kidneys, c(RGDyK) blocking (200 μg coinjected), read-out: ID/g, kidneys)?
Answer: 21.4 ± 4.04 %ID/g

Question: And the tissue uptake at 1.5 h (kidneys, double blocking (NDP + c(RGDyK)), read-out: ID/g, kidneys)?
Answer: 26.5 ± 6.59 %ID/g

Question: And the tissue uptake at 1.5 h (kidneys, without blocking, read-out: ID/g, kidneys)?
Answer: 7.72 ± 2.57 %ID/g

Question: And the tissue uptake at 1.5 h (liver, NDP blocking (20 μg coinjected), read-out: ID/g, liver)?
Answer: 5.16 ± 0.56 %ID/g

Question: What about the tissue uptake at 1.5 h (liver, c(RGDyK) blocking (200 μg coinjected), read-out: ID/g, liver) of the same molecule?
Answer: 10.4 ± 3.65 %ID/g

Question: And the tissue uptake at 1.5 h (liver, double blocking (NDP + c(RGDyK)), read-out: ID/g, liver)?
Answer: 4.04 ± 1.06 %ID/g

Question: And the tissue uptake (liver, without blocking, read-out: ID/g, liver)?
Answer: 8.3 ± 2.77 %ID/g

Question: And the tissue uptake at 1.5 h (lung, NDP blocking (20 μg coinjected), read-out: ID/g, lung)?
Answer: 1.25 ± 0.06 %ID/g

Question: And the tissue uptake at 1.5 h (lung, c(RGDyK) blocking (200 μg coinjected), read-out: ID/g, lung)?
Answer: 2.75 ± 1.04 %ID/g

Question: What about the tissue uptake at 1.5 h (lung, double blocking (NDP + c(RGDyK)), read-out: ID/g, lung) of the same molecule?
Answer: 0.88 ± 0.14 %ID/g

Question: And the tissue uptake at 1.5 h (lung, without blocking, read-out: ID/g, lung)?
Answer: 3.45 ± 1.15 %ID/g

Question: What about the tissue uptake at 1.5 h (muscle, NDP blocking (20 μg coinjected), read-out: ID/g, muscle) of the same molecule?
Answer: 0.63 ± 0.07 %ID/g

Question: And the tissue uptake at 1.5 h (muscle, c(RGDyK) blocking (200 μg coinjected), read-out: ID/g, muscle)?
Answer: 1.62 ± 0.42 %ID/g
